Literature values as cited in EP4623708A1, “SWEETENER COMPOSITION FOR POUCHED ORAL PRODUCTS” (Nicoventures Trading Limited, priority 2024, dated 2025).

Experiments:
[1] = relative to sugar

| SMILES | solubility in water | times sweeter than sugar [1] |
| --- | --- | --- |
| CC(/C=C/C=C(C)/C=C/C(=O)O)=C\C=C\C=C(C)\C=C\C=C(C)\C=C\C(=O)O (stereo in doubt) [norbixin, (2E,4E,6E,8E,10E,12E,14E,16E,18E)-4,8,13,17-tetramethylicosa-2,4,6,8,10,12,14,16,18-nonaenedioic acid] | water-soluble | – |
| OC[C@H]1O[C@H](O[C@]2(CCl)O[C@H](CCl)[C@@H](O)[C@@H]2O)[C@H](O)[C@@H](O)[C@H]1Cl [Sucralose, trichlorogalatosucrose] | – | about 600 times |
| COC(=O)/C=C/C(C)=C\C=C\C(C)=C\C=C\C=C(C)\C=C\C=C(C)\C=C\C(=O)O [bixin, (2E,4E,6E,8E,10E,12E,14E,16Z,18E)-20-methoxy-4,8,13,17-tetramethyl-20-oxoicosa-2,4,6,8,10,12,14,16,18-nonaenoic acid] | insoluble in water | – |
